Test results taken from patent publication US12268657B2, “Coenzyme Q10 composition, and preparation method and application thereof in cardio-protection” (Guangdong Runhe Biotechnology Co., Ltd, priority 2023, dated 2025).

Tested on: myocardial ischemia rat models
Experiment: Protective effect on myocardial ischemia in rat model (coronary artery clamping)
Assay type: in vivo
Details: SD rats, 0.2 mg/kg per day for one week
Method: Specifically, several SD rats weighing about 200 g were selected to prepare myocardial ischemia rat models by a coronary artery clamping method. The successful-established model rats were uniformly divided into a blank group, a control group, and a treatment group, with 8 rats in each group. The blank group was not treated with any drug during the observation period, the control group was administered with 0.2 mg/kg of coenzyme Q10 per day for one week, and the treatment group was administered with 0.2 mg/kg of the coenzyme Q10 slow-release drug per day for one week. After the one-week administration, the myocardial infarction area, and superoxide dismutase (SOD) and malondialdehyde (MDA) content in the serum of the rats after artery ligation were recorded, and the results were shown in the table below. […] Moreover, after treatment with the slow-release drug, the activity of SOD was improved, and the generation of MDA was inhibited, which was favorable to reducing the occurrence of infarction.

COC1=C(OC)C(=O)C(C/C=C(\C)CC/C=C(\C)CC/C=C(\C)CC/C=C(\C)CC/C=C(\C)CC/C=C(\C)CC/C=C(\C)CC/C=C(\C)CC/C=C(\C)CCC=C(C)C)=C(C)C1=O [coenzyme Q10, Coenzyme Q10]
Myocardial infarction area (%): 14.69 ± 1.14% | MDA (serum): 6.57 ± 0.68 nmol/mL | SOD (NU/mL) (serum): 220.34 ± 8.56 NU/mL
